US20150204851A1, “METHODS FOR IDENTIFYING DIABETES DRUGS” (Metanomics Health GmbH, priority 2012, published 2015)
Counter-ions that a name gives are not always drawn.

Legend:
glyoxylate [1] = settings: cultured human cells; Berman 2005; cited from earlier work
[2] = Mehta 2009; cited from earlier work
glyoxylate [3] = experiment: Glyoxylate level in C. elegans after treatment, GC-MS; format: in vivo, Caenorhabditis elegans; settings: for Effect on native/endogenous glyoxylate levels in C. elegans: single treatment: 50 mM metformin or 20 mM glyoxylate; for Ratio of glyoxylate concentrations in C. elegans, treatment/control: wild type on growth medium, 20 mM glyoxylate and/or 50 mM metformin, normalized to median of control
Procedure: Nematodes were harvested and extensively washed with buffer and the resulting pellet was disrupted using glass beats in combination with mechanical force. Samples were extracted with methyl-tert-butylether, methanol and extraction buffer and sonicated for 15 minutes. 50% of a mixture of water/methanol (3:1) was added, vigorously mixed and centrifuged. The polar phase was evaporated to dryness. After addition of water and a mixture of ethanol and dichlormethan, the sample was fractioned into an aqueous, polar phase and an organic, lipophilic phase. 13C-glyoxylate was added as internal standard and the extracts were derivatized in the following way: The methoximation of the carbonyl groups was carried out by reaction with methoxyamine hydrochloride (20 mg/mL in pyridine, 50 μL for 1.5 hours at 60° C.) in a tightly sealed vessel. Finally, the derivatization with 50 μL of N-methyl-N-(trimethylsilyl)-2,2,2-trifluoroacetamide (MSTFA) was carried out for 30 minutes at 60° C., again in the tightly sealed vessel. The final volume before injection into the GC was 100 μL. The GC-MS systems consist of an Agilent 6890 GC coupled to an Agilent 5973 MSD. Autosamplers were CompiPal or GCPaI from CTC.
For the analysis a usual commercial capillary separation column (30 m×0.25 mm×0.5 μm) with an arylene/poly-methyl-siloxane stationary phases was used (for example: DB-XLB, Agilent Technologies). 0.5 μL of the final volume was injected splitless and the oven temperature program was started at 70° C. and ended at 320° C. with different heating rates starting with low rates in order to achieve a sufficient chromatographic separation and number of scans for glyoxylate analysis and changing to a high heating rate after glyoxylate elution. Furthermore usual GC-MS standard conditions, for example constant flow with nominal 1 to 1.7 mL/min. and helium as the mobile phase gas and standard tune conditions were applied. Ionization was done by electron impact with 70 eV, scanning 2 characteristic mass fragments of the glyoxylate derivate and its internal standard, respectively within an appropriate time window. Scan rate was 25 scans/sec. Glyoxylate values were normalized to Total Ion Count of each sample to adjust individual deviation of sample volume. Furthermore, the data were normalized to the median of the control samples leading to ratios to control.
We tested the hypothesis that metformin suppresses glyoxylate concentration in in vivo experiments with the model worm Caenorhabditis elegans, by means of its treatment with glyoxylate and metformin separately and in combination of glyoxylate plus metformin.
The experiment included four treatment groups:
1) C. elegans, wild type (wt)—on growth medium (no treatment, control).
2) C. elegans, wt—on growth medium plus 50 mM metformin (methodology for Metformin application and doses as described in Onken & Driscoll (Onken B, Driscoll M (2010) Metformin induces a dietary restriction-like state and the oxidative stress response to extend C. elegans healthspan via AMPK, LKB1, and SKN-1. PLoS ONE 5(1): e8758.).
3) C. elegans, wt—on growth medium plus 20 mM glyoxylate.
4) C. elegans, wt—on growth medium plus 20 mM glyoxylate and 50 mM metformin.
From the GC-MS metabolite profiles, total ion count (TIC) as a measure of the absolute intensity value was calculated for each batch. Measured glyoxylate levels were then volume-normalized, using TICs.

glyoxylate [4] = experiment: Plasma glyoxylate in rats dosed 28 days by gavage, GC-MS metabolite profiling; format: in vivo, rat; settings: for Ratio treatment/control, plasma glyoxylate: gavage once daily
Procedure: Two groups of each 5 male and female rats was dosed once daily with the indicated compounds with a different dose per group (see below) over 28 days.
Each dose group in the studies consisted of five rats per sex. Additional groups of each 15 male and 15 female animals served as controls. Before starting the treatment period, animals, which were 62-64 days old when supplied, were acclimatized to the housing and environmental conditions for 7 days. All animals of the animal population were kept under the same constant temerature (20-24±3° C.) and the same constant humidity (30-70%). The animals of the animal population were fed ad libitum. The food to be used was essentially free of chemical or microbial contaminants. Drinking water was also offered ad libitum. Accordingly, the water was free of chemical and microbial contaminants as laid down in the European Drinking Water Directive 98/83/EG. The illumination period was 12 hours light followed by 12 hours darkness (12 hours light, from 6:00 to 18:00, and 12 hours darkness, from 18:00 to 6:00). The studies were performed in an AAALAC-approved laboratory in accordance with the German Animal Welfare Act and the European Council Directive 86/609/EE. The test system was arranged according to the OECD 407 guideline for the testing of chemicals for repeated dose 28-day oral toxicity study in rodents. The test substance was dosed and administered as follows:
Metformin hydrochloride was administered by gavage (high dose group at 1 g/kg body weight, low dose group at 0.2 g/kg body weight), in drinking water containing 0.5% Carboxymethyl cellulose (Tylose CB30000) (administration volume: 10 ml/kg body weight).
In the morning of day 7, 14, and 28, blood was taken from the retroorbital venous plexus from fasted anaesthetized animals. From each animal, 1 ml of blood was collected with EDTA as anticoagulant. The samples were centrifuged for generation of plasma. All plasma samples were covered with a N2 atmosphere and then stored at −80° C. until analysis.
For mass spectrometry-based metabolite profiling analyses plasma samples were extracted and a polar and a non-polar (lipid) fraction was obtained. For GC-MS analysis, the non-polar fraction was treated with methanol under acidic conditions to yield the fatty acid methyl esters. Both fractions were further derivatized with O-methyl-hydroxyamine hydrochloride and pyridine to convert Oxo-groups to O-methyloximes and subsequently with a silylating agent before analysis.
Following comprehensive analytical validation steps, the data for each analyte were normalized against data from pool samples. These samples were run in parallel through the whole process to account for process variability. The significance of treatment group values specific for sex, treatment duration and metabolite was determined by comparing means of the treated groups to the means of the respective untreated control groups using WELCH-test and quantified with treatment ratios versus control and p-values.

C. elegans = settings: in vivo; cited from earlier work

In the case of `N=C(N)NN` [Aminoguanidine, aminoguanidine], the “Scavenging of glyoxylate, diverting it from oxalate synthesis” value (glyoxylate [1]) is given as “demonstrated to scavenge glyoxylate” and the “Order of effectiveness for glyoxal trapping, amine-containing drugs” value [2] is given as “aminoguanidine>>pyridoxamine>metformin”.
For `O=CC(=O)O` [Glyoxylate, glyoxylate], the “Effect on native/endogenous glyoxylate levels in C. elegans” value (glyoxylate [3]) was “significant increase of endogenous glyoxylate” and the “Ratio of glyoxylate concentrations in C. elegans, treatment/control” value (glyoxylate [3]) was 1.81.
For `CN(C)C(=N)N=C(N)N` [Metformin hydrochloride], the “Ratio treatment/control, plasma glyoxylate” value (from here on “Ratio treatment/control”) (glyoxylate [4]; High Dose 1 g/kg body weight, female rats, day 7 (f7)) was 0.82, the “Ratio treatment/control” value (glyoxylate [4]; High Dose 1 g/kg body weight, female rats, day 14 (f14)) was 0.58 and the “Ratio treatment/control” value (glyoxylate [4]; High Dose 1 g/kg body weight, female rats, day 28 (f28)) was 0.52. The “Ratio treatment/control” value (glyoxylate [4]; High Dose 1 g/kg body weight, male rats, day 7 (m7)) was 0.22, the “Ratio treatment/control” value (glyoxylate [4]; High Dose 1 g/kg body weight, male rats, day 14 (m14)) was 0.29 and the “Ratio treatment/control” value (glyoxylate [4]; High Dose 1 g/kg body weight, male rats, day 28 (m28)) was 0.58. For the same molecule, the “Ratio treatment/control” value (glyoxylate [4]; Low Dose 0.2 g/kg body weight, female rats, day 7 (f7)) was 1.01, the “Ratio treatment/control” value (glyoxylate [4]; Low Dose 0.2 g/kg body weight, female rats, day 14 (f14)) was 0.72 and the “Ratio treatment/control” value (glyoxylate [4]; Low Dose 0.2 g/kg body weight, female rats, day 28 (f28)) was 0.64. For the same molecule, the “Ratio treatment/control” value (glyoxylate [4]; Low Dose 0.2 g/kg body weight, male rats, day 7 (m7)) was 0.59, the “Ratio treatment/control” value (glyoxylate [4]; Low Dose 0.2 g/kg body weight, male rats, day 14 (m14)) was 0.65 and the “Ratio treatment/control” value (glyoxylate [4]; Low Dose 0.2 g/kg body weight, male rats, day 28 (m28)) was 0.44.
With `CN(C)C(=N)N=C(N)N` [Metformin, metformin] the “Effect on glyoxylate concentrations in a rat model system” value (glyoxylate [4]; summary of Table 2) was “strongly reducing glyoxylate concentrations”, the “Effect on glyoxylate-induced increase of endogenous glyoxylate in C. elegans” value (glyoxylate [3]; 50 mM metformin simultaneously to treatment with 20 mM glyoxylate) was “restored the native glyoxylate level” and the “Effect on native/endogenous glyoxylate levels in C. elegans” value (glyoxylate [3]) was “significantly decreased native glyoxylate levels”. The “Ratio of glyoxylate concentrations in C. elegans, treatment/control” value (glyoxylate [3]) was 0.88, the “Order of effectiveness for glyoxal trapping, amine-containing drugs” value [2] was “aminoguanidine>>pyridoxamine>metformin” and the “Effect on lifespan in C. elegans” value (C. elegans) was “promote lifespan in C. elegans”.
In the case of `CC(=O)N[C@@H](CS)C(=O)O` [N-acetyl-cysteine], the “Order of effectiveness for glyoxal trapping, thiol-containing drugs” value (from here on “Order … thiol-containing drugs”) [2] is given as “penicillamine>cysteine>N-acetyl-cysteine”.
In the case of `N[C@@H](CS)C(=O)O` [cysteine], the “Order … thiol-containing drugs” value [2] is listed as “penicillamine>cysteine>N-acetyl-cysteine”.
In the case of `CC(C)(S)[C@@H](N)C(=O)O` [penicillamine], the “Order … thiol-containing drugs” value [2] is given as “penicillamine>cysteine>N-acetyl-cysteine”.
